Experiments:
Assay type in all cases: cell-based
[1] = test system: IL-6 in THP-1 cells; test: Inhibition of IL-6 in LPS-stimulated THP-1 human monocyte cells (HTRF); details: IL-6 HTRF; for EC50: 500 ng/mL LPS, 22 hours; for inhibition at 10 µM: LPS, read-out: percent inhibition in brackets (given for EC50 >10 μM)
How it was run: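 THP-1 cells, serum-reduced (1% FBS) for 24 h, were exposed to compound (1:3, 10-point series from 10 μM; 0.1% DMSO) for 2 h, then 500 ng/mL LPS for 22 h at 37° C. Secreted IL-6 measured by HTRF (665/620 ratio), normalised to DMSO; EC50 by four-parameter fit, else % inhibition at 10 μM.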

[2] = test system: LL29 cells (primary human fibroblasts derived from IPF patients) treated with TGF-β1, α-smooth muscle actin; test: Inhibition of the fibrotic process: αSMA staining in TGF-β1 treated primary human fibroblasts from IPF patients (LL29 cells); details: Fibroblast, 96 h; for EC50: LL29 cells treated with TGF-β1 (20 ng/mL), 4 days; for inhibition at 10 µM: LL29 cells treated with TGF-β1, 4 days, read-out: percent inhibition in brackets (given for EC50 >10 μM)
[3] = test system: SW480 colon cancer cells; test: Cell viability assay (CellTiter-Blue) in SW480 colon cancer cells; details: Homo sapiens, 96 h; for inhibition at 10 µM: four days, CellTiter-Blue, read-out: percent inhibition at 10 μM (given for EC50 of >10 μM); for EC50: four days incubation, CellTiter-Blue cell viability
How it was run: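 About 2×10^3 SW480 colon cancer cells per well were exposed to compound (8-point 1:3 dilutions, 10 μM to 0.004 μM) for four days at 37 °C. Viability was read by CellTiter-Blue resazurin reduction (~3 h, Ex 560/Em 590). EC50 from nonlinear regression; above 10 μM, % inhibition at 10 μM is reported.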

Structure (SMILES)	EC50 [1]	EC50 [3]	EC50 [2]	inhibition at 10 µM [3]	inhibition at 10 µM [1]	inhibition at 10 µM [2]
COc1cccc(-c2cncc3[nH]c(-c4n[nH]c5ccc(-c6cccnc6)nc45)nc23)c1 [Compound 949, 3-(7-(3-Methoxylphenyl)-3H-imidazo[4,5-c]pyridin-2-yl)-5-(pyridin-3-yl)-1H-pyrazolo[4,3-b]pyridine]	0.682 µM	> 10 µM	6.53 µM	6.9%		
COc1cccc(-c2cncc3[nH]c(-c4n[nH]c5ccc(-c6cn[nH]c6)nc45)nc23)c1 [Compound 975, 3-(7-(3-Methoxylphenyl)-3H-imidazo[4,5-c]pyridin-2-yl)-5-(1H-pyrazol-4-yl)-1H-pyrazolo[4,3-b]pyridine]	> 10 µM	> 10 µM	> 10 µM	4.1%	0%	43.2%
COc1cccc(-c2cncc3[nH]c(-c4n[nH]c5ccc(-c6cncc(OC7CCNCC7)c6)nc45)nc23)c1 [Compound 980, 3-(7-(3-Methoxylphenyl)-3H-imidazo[4,5-c]pyridin-2-yl)-5-(5-(piperidin-4-yloxy)pyridin-3-yl)-1H-pyrazolo[4,3-b]pyridine]	> 10 µM	> 10 µM	2.72 µM	19.6%	34.1%	
NC1CN(c2cncc(-c3ccc4[nH]nc(-c5nc6c(-c7ccc(Cl)s7)cncc6[nH]5)c4n3)n2)C1 [Compound 1023, 1-(6-(3-(7-(5-Chlorothiophen-2-yl)-3H-imidazo[4,5-c]pyridin-2-yl)-1H-pyrazolo[4,3-b]pyridin-5-yl)pyrazin-2-yl)azetidin-3-amine]	0.098 µM	> 10 µM	6.19 µM	7.4%		
C1=C(c2ccc3[nH]nc(-c4nc5c(-c6ccc7c(c6)OCO7)cncc5[nH]4)c3n2)CCNC1 [Compound 1064, 3-(7-(Benzo[d][1,3]dioxol-5-yl)-3H-imidazo[4,5-c]pyridin-2-yl)-5-(1,2,3,6-tetrahydropyridin-4-yl)-1H-pyrazolo[4,3-b]pyridine]	> 10 µM	> 10 µM	4.03 µM	0.1%	21.1%	
Cn1cc(-c2ccc3[nH]nc(-c4nc5c(-c6ccc(F)cc6)cncc5[nH]4)c3n2)c(CO)n1 [Compound 1084, (4-(3-(7-(4-Fluorophenyl)-3H-imidazo[4,5-c]pyridin-2-yl)-1H-pyrazolo[4,3-b]pyridin-5-yl)-1-methyl-1H-pyrazol-3-yl)methanol]	> 10 µM	> 10 µM	2.3 µM	5.7%	4.1%	

Second part, led by results:

EC50 [1]	EC50 [3]	Structure (SMILES)	EC50 [2]	inhibition at 10 µM [3]	inhibition at 10 µM [1]	inhibition at 10 µM [2]
> 10 µM	> 10 µM	COc1cccc(-c2cncc3[nH]c(-c4n[nH]c5ccc(-c6cncc(NC(=O)Cc7ccccc7)c6)nc45)nc23)c1 [Compound 955, N-(5-(3-(7-(3-methoxylphenyl)-3H-imidazo[4,5-c]pyridin-2-yl)-1H-pyrazolo[4,3-b]pyridin-5-yl)pyridin-3-yl)-2-phenylacetamide]	> 10 µM	2.7%	27.5%	4.2%
> 10 µM	> 10 µM	COc1cccc(-c2cncc3[nH]c(-c4n[nH]c5ccc(-c6cncc(NC(=O)CC(C)(C)C)c6)nc45)nc23)c1 [Compound 961, N-(5-(3-(7-(3-methoxylphenyl)-3H-imidazo[4,5-c]pyridin-2-yl)-1H-pyrazolo[4,3-b]pyridin-5-yl)pyridin-3-yl)-3,3-dimethylbutanamide]	> 10 µM	0.4%	22.5%	0%
> 10 µM	> 10 µM	COc1cccc(-c2cncc3[nH]c(-c4n[nH]c5ccc(-c6cncc(NC(=O)C7CCCCC7)c6)nc45)nc23)c1 [Compound 967, N-(5-(3-(7-(3-Methoxylphenyl)-3H-imidazo[4,5-c]pyridin-2-yl)-1H-pyrazolo[4,3-b]pyridin-5-yl)pyridin-3-yl)cyclohexanecarboxamide]	> 10 µM	10.8%	33.9%	0%
1.34 µM	> 10 µM	COc1cccc(-c2cncc3[nH]c(-c4n[nH]c5ccc(-c6cncc(O)c6)nc45)nc23)c1 [Compound 985, 5-(3-(7-(3-Methoxylphenyl)-3H-imidazo[4,5-c]pyridin-2-yl)-1H-pyrazolo[4,3-b]pyridin-5-yl)pyridin-3-ol]	2.35 µM	7.1%		
> 10 µM	> 10 µM	c1cc2c(cc1-c1cncc3[nH]c(-c4n[nH]c5ccc(C6CCNCC6)nc45)nc13)OCO2 [Compound 1063, 3-(7-(Benzo[d][1,3]dioxol-5-yl)-3H-imidazo[4,5-c]pyridin-2-yl)-5-(piperidin-4-yl)-1H-pyrazolo[4,3-b]pyridine]	> 10 µM	4.8%	32.7%	31.3%
> 10 µM	> 10 µM	Cc1ncc(-c2ccc3[nH]nc(-c4nc5c(-c6cccc(F)c6)cncc5[nH]4)c3n2)s1 [Compound 1081, 5-(3-(7-(3-Fluorophenyl)-3H-imidazo[4,5-c]pyridin-2-yl)-1H-pyrazolo[4,3-b]pyridin-5-yl)-2-methylthiazole]	1.96 µM	23.5%	7.7%	
> 10 µM	> 10 µM	Cc1cnc(-c2ccc3[nH]nc(-c4nc5c(-c6cccc(F)c6)cncc5[nH]4)c3n2)s1 [Compound 1082, 2-(3-(7-(3-Fluorophenyl)-3H-imidazo[4,5-c]pyridin-2-yl)-1H-pyrazolo[4,3-b]pyridin-5-yl)-5-methylthiazole]	> 10 µM	11.5%	14.3%	0%
0.52 µM	> 10 µM	Cn1cc(-c2ccc3[nH]nc(-c4nc5c(N6CCCCC6)cncc5[nH]4)c3n2)c(CO)n1 [Compound 1089, (1-Methyl-4-(3-(7-(piperidin-1-yl)-3H-imidazo[4,5-c]pyridin-2-yl)-1H-pyrazolo[4,3-b]pyridin-5-yl)-1H-pyrazol-3-yl)methanol]	> 10 µM	15.5%		36%
> 10 µM	> 10 µM	Cn1cc(-c2ccc3[nH]nc(-c4nc5c(-c6ccc7c(c6)OCO7)cncc5[nH]4)c3n2)c(CO)n1 [Compound 1106, (4-(3-(7-(Benzo[d][1,3]dioxol-5-yl)-3H-imidazo[4,5-c]pyridin-2-yl)-1H-pyrazolo[4,3-b]pyridin-5-yl)-1-methyl-1H-pyrazol-3-yl)methanol]	2.42 µM	3.1%	0%	
